Measured values from patent publication EP0429999A1, “Novel cephalosporins, process for their preparation and their use as medicaments” (BAYER AG, priority 1989, dated 1991).
In brackets after ≈: the same amount, converted by molar mass.

Tests used:
Test in all cases: MIC (MHK), agar dilution on Iso-Sensitest agar, multipoint inoculator
Assay type in all cases: cell-based
Staph. epi. 25185 = conditions: strain Staph. epi. 25185; 37°C, read after ca. 20 h, ca. 10^4 colony-forming particles per inoculation point
Text: (§1) Die minimalen Hemmkonzentrationen (MHK) wurden per Reihenverdünnungsverfahren auf Iso-Sensitest Agar (Oxoid) bestimmt. Für jede Prüfsubstanz wurde eine Reihe von Agarplatten hergestellt, die bei jeweils doppelter Verdünnung abfallende Konzentrationen des Wirkstoffes enthielten. Die Agarplatten wurden mit einem MultipointInokulator (Denley) beimpft. Zum Beimpfen wurden Übernachtkulturen der Erreger verwandt, die zuvor so verdünnt wurden, daß jeder Impfpunkt ca. 10^4 koloniebildende Partikel enthielt. Die beimpften Agarplatten wurden bei 37°C bebrütet, und das Keimwachstum wurde nach ca. 20 Stunden abgelesen. Der MHK-Wert (µg/ml) gibt die niedrigste Wirkstoffkonzentration an, bei der mit bloßem Auge kein Keimwachstum zu erkennen war.
(§2) MHK-Werte: Agarverdünnung/Multipoint

Enterococc. 27185 = conditions: strain Enterococc. 27185; 37°C, read after ca. 20 h, ca. 10^4 colony-forming particles per inoculation point
Text: as §1, §2

Staph. aur. 25455 = conditions: strain Staph. aur. 25455; 37°C, read after ca. 20 h, ca. 10^4 colony-forming particles per inoculation point
Text: as §1, §2

Klebs. 6097 = conditions: strain Klebs. 6097; 37°C, read after ca. 20 h, ca. 10^4 colony-forming particles per inoculation point
Text: as §1, §2

E. coli A 261 = conditions: Escherichia coli, A261; strain E. coli A 261; 37°C, read after ca. 20 h, ca. 10^4 colony-forming particles per inoculation point
Text: as §1, §2

Strept. faec. 27101 = conditions: strain Strept. faec. 27101; 37°C, read after ca. 20 h, ca. 10^4 colony-forming particles per inoculation point
Text: as §1, §2

- MIC (Staph. epi. 25185): ≤ 0.25 µg/mL
- MIC (Enterococc. 27185): 2 µg/mL (≈ 4.43 µM)
- MIC (Staph. aur. 25455): ≤ 0.25 µg/mL
- MIC (Klebs. 6097): 2 µg/mL (≈ 4.43 µM)
- MIC (E. coli A 261): 4 µg/mL (≈ 8.86 µM)
- MIC (Strept. faec. 27101): 16 µg/mL (≈ 35.4 µM)
SMILES: C/C=C\C1=C(C(=O)O)N2C(=O)[C@@H](NC(=O)[C@H](N)c3cc4sc(N)nc4s3)[C@H]2SC1 [Beispiel 13a]
